Experimental data taken from PMC7281265, “Design, Synthesis, and Biological Evaluation of 1,2,3-Triazole-linked triazino[5,6-b]indole-benzene sulfonamide Conjugates as Potent Carbonic Anhydrase I, II, IX, and XIII Inhibitors” (Metabolites, 2020).

Tests used:
[1] = target: hCA I (Homo sapiens, UniProt P00915); assay: stopped-flow CO2 hydrase assay, hCA I
Experimental: (§1) The newly synthesized 1,2,3-triazole linked triazino[5,6-b]indole-benzene sulfonamide hybrids (6a–6o) were evaluated for their carbonic anhydrase inhibitory activity against a panel of carbonic anhydrases, i.e., hCA I, hCA II, hCA IX, and hCA XIII, by the stopped-flow CO2 hydrase assay method. Highly purified CA isoforms were employed, for which the kinetic parameters for the physiologic reaction (CO2 hydration) were measured (see the Experimental section for details), monitoring the color change produced by the formation of H^+ ions (and bicarbonate). […] All the newly synthesized analogs were evaluated in vitro for their inhibitory activity against a panel of recombinant CA isoforms, i.e., hCA I, hCA II, hCA IX, and hCA XIII, obtained inhouse, using the stopped-flow CO2 hydrase assay.
(§2) An SX.18 V-R Applied Photophysics (Oxford, UK) stopped-flow instrument was used to assay the catalytic inhibition of various CA enzymes [32]. […] IC50-s values were calculated from the enzyme activity (as kcat, see Table 2) with respect to the inhibitor concentration.

[2] = target: hCA II (Homo sapiens, UniProt P00918); assay: stopped-flow CO2 hydrase assay, hCA II
Experimental: as §1, §2

[3] = target: hCA IX (Homo sapiens, UniProt Q16790); assay: stopped-flow CO2 hydrase assay, hCA IX
Experimental: as §1, §2

[4] = target: hCA XIII (Homo sapiens, UniProt Q8N1Q1); assay: stopped-flow CO2 hydrase assay, hCA XIII
Sequence of hCA XIII (Q8N1Q1 whole entry): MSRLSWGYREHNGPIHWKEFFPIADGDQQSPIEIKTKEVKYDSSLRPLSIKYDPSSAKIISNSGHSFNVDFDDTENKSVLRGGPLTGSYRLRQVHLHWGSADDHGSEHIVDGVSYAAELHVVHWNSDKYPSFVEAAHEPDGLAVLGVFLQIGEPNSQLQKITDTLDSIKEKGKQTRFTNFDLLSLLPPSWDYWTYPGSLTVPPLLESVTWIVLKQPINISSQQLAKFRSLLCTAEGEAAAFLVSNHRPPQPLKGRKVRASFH
Experimental: as §1, §2

Sequence of hCA I (P00915 whole entry): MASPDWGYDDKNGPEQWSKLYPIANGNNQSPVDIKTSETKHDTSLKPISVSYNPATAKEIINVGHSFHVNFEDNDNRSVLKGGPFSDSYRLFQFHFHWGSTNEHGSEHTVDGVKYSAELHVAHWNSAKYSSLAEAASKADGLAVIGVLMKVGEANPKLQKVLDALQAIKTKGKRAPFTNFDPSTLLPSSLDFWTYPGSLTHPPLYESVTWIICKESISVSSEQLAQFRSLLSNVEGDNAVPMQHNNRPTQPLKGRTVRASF

Row | SMILES | melting point [°C] | Ki [1] [nM] | Ki [2] [nM] | Ki [3] [nM] | Ki [4] [nM]
1 | CCn1c2ccccc2c2nnc(SCc3cn(-c4ccc(S(N)(=O)=O)cc4)nn3)nc21 [Compound 6b] | 202 to 204 | 642 | 72 | 172 | 69.8
2 | CCCn1c2ccccc2c2nnc(SCc3cn(-c4ccc(S(N)(=O)=O)cc4)nn3)nc21 [Compound 6c] | 261 to 263 | 3960 | 88.7 | 219 | 365
3 | C=CCn1c2ccccc2c2nnc(SCc3cn(-c4ccc(S(N)(=O)=O)cc4)nn3)nc21 [Compound 6e] | 230 to 232 | 536 | 41.7 | 41.1 | 627
4 | CCn1c2ccc(F)cc2c2nnc(SCc3cn(-c4ccc(S(N)(=O)=O)cc4)nn3)nc21 [Compound 6g] | 246 to 248 | 699 | 63.9 | 193 | 675
5 | CCCn1c2ccc(F)cc2c2nnc(SCc3cn(-c4ccc(S(N)(=O)=O)cc4)nn3)nc21 [Compound 6h] | 240 to 242 | 764 | 683 | 119 | 1810
6 | CCn1c2ccc(Cl)cc2c2nnc(SCc3cn(-c4ccc(S(N)(=O)=O)cc4)nn3)nc21 [Compound 6l] | 252 to 256 | 2840 | 185 | 150 | 3980
7 | CCCn1c2ccc(Cl)cc2c2nnc(SCc3cn(-c4ccc(S(N)(=O)=O)cc4)nn3)nc21 [Compound 6m] | 257 to 262 | 6510 | 61.7 | 204 | 824

Next, values leading:

Row | melting point [°C] | Ki [1] [nM] | Ki [2] [nM] | Ki [3] [nM] | Ki [4] [nM] | SMILES
8 | 235 to 240 | 910 | 65.5 | 286 | 77.8 | Cn1c2ccccc2c2nnc(SCc3cn(-c4ccc(S(N)(=O)=O)cc4)nn3)nc21 [Compound 6a]
9 | 213 to 215 | 315 | 20.9 | 37.8 | 65.8 | CC(C)n1c2ccccc2c2nnc(SCc3cn(-c4ccc(S(N)(=O)=O)cc4)nn3)nc21 [Compound 6d]
10 | 244 to 246 | 766 | 59.6 | 41.3 | 835 | Cn1c2ccc(F)cc2c2nnc(SCc3cn(-c4ccc(S(N)(=O)=O)cc4)nn3)nc21 [Compound 6f]
11 | 235 to 237 | 379 | 7.7 | 34.9 | 736 | CC(C)n1c2ccc(F)cc2c2nnc(SCc3cn(-c4ccc(S(N)(=O)=O)cc4)nn3)nc21 [Compound 6i]
12 | 245 to 247 | 4590 | 73.7 | 402 | 794 | C=CCn1c2ccc(F)cc2c2nnc(SCc3cn(-c4ccc(S(N)(=O)=O)cc4)nn3)nc21 [Compound 6j]
13 | 243 to 248 | 5140 | 253 | 331 | 867 | Cn1c2ccc(Cl)cc2c2nnc(SCc3cn(-c4ccc(S(N)(=O)=O)cc4)nn3)nc21 [Compound 6k]
14 | 263 to 265 | 572 | 179 | 321 | 91.3 | CC(C)n1c2ccc(Cl)cc2c2nnc(SCc3cn(-c4ccc(S(N)(=O)=O)cc4)nn3)nc21 [Compound 6n]
15 | 261 to 264 | 694 | 97.1 | 325 | 2300 | C=CCn1c2ccc(Cl)cc2c2nnc(SCc3cn(-c4ccc(S(N)(=O)=O)cc4)nn3)nc21 [Compound 6o]
